Earlier results on one compound are cited in US20200253945A1, “DELAYED RELEASE DEFERIPRONE TABLETS AND METHODS OF USING THE SAME” (Chiesi Farmaceutici S.p.A., priority 2017, published 2020).

For data set [1] the following is noted: in vivo.
The conditions of data set [2]: patients who begin therapy with deferiprone.

Turning to `Cc1c(O)c(=O)ccn1C` [deferiprone, Deferiprone], the elimination half-life result in data set [1] is recorded as “about 2 hours”. Besides, in data set [2], the “patients with gastric distress” value was 15-30%.
